Columns and labels:
EP3 receptor [1] = molecular target: T1, EP3 receptor (Homo sapiens, UniProt P43115); test: [3H]-PGE2 binding assay (EP3 competition binding); settings: read-out: [3H]-PGE2 Binding Ki
T1 construct: purchased Millipore HTS092M
T1 sequence (P43115 1-390): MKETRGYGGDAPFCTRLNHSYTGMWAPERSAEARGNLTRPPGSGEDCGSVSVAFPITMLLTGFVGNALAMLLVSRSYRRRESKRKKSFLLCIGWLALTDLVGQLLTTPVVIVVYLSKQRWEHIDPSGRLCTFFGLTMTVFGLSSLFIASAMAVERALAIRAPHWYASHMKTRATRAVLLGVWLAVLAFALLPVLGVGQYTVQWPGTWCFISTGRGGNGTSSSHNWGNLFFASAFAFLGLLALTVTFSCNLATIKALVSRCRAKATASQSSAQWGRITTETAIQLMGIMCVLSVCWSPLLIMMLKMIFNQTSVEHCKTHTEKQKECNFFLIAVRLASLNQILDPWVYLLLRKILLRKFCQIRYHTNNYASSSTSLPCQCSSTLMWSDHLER
Outline: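 Scintillation-bead competition binding with EP3 membranes (2 μg/well), 2 nM [3H]-PGE2, 0.1% DMSO, in 50 mM Tris, 10 mM MgCl2, 1 mM EDTA, pH 7.4.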

EP3 receptor [2] = molecular target: T1, EP3 receptor; test: CHO cell cAMP assay (forskolin and sulprostone stimulated, HTRF); assay type: cell-based; settings: CHO cells; sulprostone 700 nM (EC80) and FSK 2 μM (EC70), 37° C. for 30 minutes; read-out: CHO_cAMP IC50
Method: For detection, a homogeneous competitive immunoassay (Time Resolved Fluorescence Energy Transfer (hTR-FRET)) was used.
Cells (6K cells per well) were plated in Poly-D-Lysine coated plates the day before the assay was to be run and were incubated at 37° C. […] At the start of the assay the buffer was removed from the cells and replaced with buffer containing test compound(s). Sulprostone at an EC80 dose (700 nM) and FSK at an EC70 dose (2 μM) were added to initiate the reaction (37° C. for 30 minutes).
FSK increases cAMP production and sulprostone decreases cAMP production produced by FSK. In this assay, EP3 antagonists will increase the cAMP to the level of cAMP generated by FSK alone.
Approximately one hour later the plates were read on an Envision (Perkin Elmer) in HTRF mode.
NSP, NSN, NSsample were converted to nM cAMP using the following equation: […]
IC50 values were determined from a […] (Hill equation) of a single 11-point compound dosing.

SMILES	Ki (EP3 receptor [1]) [nM]	IC50 (EP3 receptor [2]) [nM]
O=C1NC(=O)/C(=C/C(c2ccc(-c3ccc4cccc(F)c4c3)[nH]c2=O)C2CCCC2)O1 (stereo not shown) [compound 92, (Z)-5-(2-cyclopentyl-2-(6-(8-fluoronaphthalen-2-yl)-2-oxo-1,2-dihydropyridin-3-yl)ethylidene)oxazolidine-2,4-dione]	9	7
CC(C)C(/C=C1\OC(=O)NC1=O)c1ccc(-c2cc(Cl)c3c(c2)ncn3C)[nH]c1=O (stereo not shown) [compound 97, (Z)-5-(2-(6-(7-chloro-1-methyl-1H-benzo[d]imidazol-5-yl)-2-oxo-1,2-dihydropyridin-3-yl)-3-methylbutylidene)oxazolidine-2,4-dione]	179	666
CCn1cc2c(C)cc(-c3ccc(C(/C=C4\OC(=O)NC4=O)C(C)C)c(=O)[nH]3)cc2n1 (stereo not shown) [compound 98, (Z)-5-(2-(6-(2-ethyl-4-methyl-2H-indazol-6-yl)-2-oxo-1,2-dihydropyridin-3-yl)-3-methylbutylidene)oxazolidine-2,4-dione]	> 10000	> 20000
O=C1NC(=O)/C(=C/C(c2ccc(-c3ccc4cccc(F)c4c3)[nH]c2=O)C2CC2)O1 (stereo not shown) [compound 103, (Z)-5-(2-cyclopropyl-2-(6-(8-fluoronaphthalen-2-yl)-2-oxo-1,2-dihydropyridin-3-yl)ethylidene)oxazolidine-2,4-dione]	22	33
CCn1ncc2c(C)cc(-c3ccc(C(/C=C4\OC(=O)NC4=O)C(C)C)c(=O)[nH]3)cc21 (stereo not shown) [compound 106, (Z)-5-(2-(6-(1-ethyl-4-methyl-1H-indazol-6-yl)-2-oxo-1,2-dihydropyridin-3-yl)-3-methylbutylidene)oxazolidine-2,4-dione]	50	555
CC(C)C(CC1OC(=O)NC1=O)c1ccc(-c2cc(Cl)c3c(c2)ncn3C)[nH]c1=O (stereo not shown) [compound 107, 5-(2-(6-(7-chloro-1-methyl-1H-benzo[d]imidazol-5-yl)-2-oxo-1,2-dihydropyridin-3-yl)-3-methylbutyl)oxazolidine-2,4-dione]	> 10000	> 20000
CC(C)C(/C=C1\OC(=O)NC1=O)c1ccc(-c2ccc3c(c2)N(C)CCO3)[nH]c1=O (stereo not shown) [compound 108, (Z)-5-(3-methyl-2-(6-(4-methyl-3,4-dihydro-2H-benzo[b][1,4]oxazin-6-yl)-2-oxo-1,2-dihydropyridin-3-yl)butylidene)oxazolidine-2,4-dione]	171	602
CCn1ncc2c(F)cc(-c3[nH]c(=O)c(C(/C=C4\OC(=O)NC4=O)C(C)C)cc3C)cc21 (stereo not shown) [compound 111, (Z)-5-(2-(6-(1-ethyl-4-fluoro-1H-indazol-6-yl)-5-methyl-2-oxo-1,2-dihydropyridin-3-yl)-3-methylbutylidene)oxazolidine-2,4-dione]	162	585
CCn1ncc2c(Cl)cc(-c3ccc(C(/C=C4\OC(=O)NC4=O)C(C)C)c(=O)[nH]3)cc21 (stereo not shown) [compound 116, (Z)-5-(2-(6-(4-chloro-1-ethyl-1H-indazol-6-yl)-2-oxo-1,2-dihydropyridin-3-yl)-3-methylbutylidene)oxazolidine-2,4-dione]	8	76
CC(C)C(/C=C1\OC(=O)NC1=O)c1ccc(-c2ccc3c(ccn3C)c2)[nH]c1=O (stereo not shown) [compound 118, (Z)-5-(3-methyl-2-(6-(1-methyl-1H-indol-5-yl)-2-oxo-1,2-dihydropyridin-3-yl)butylidene)oxazolidine-2,4-dione]	44	131
CCn1cc2ccc(-c3ccc(C(CC4OC(=O)NC4=O)C(C)C)c(=O)[nH]3)cc2n1 (stereo not shown) [compound 120, 5-(2-(6-(2-ethyl-2H-indazol-6-yl)-2-oxo-1,2-dihydropyridin-3-yl)-3-methylbutyl)oxazolidine-2,4-dione]	> 10000	> 20000
CC(C)C(/C=C1\OC(=O)NC1=O)c1ccc(-c2cc(F)c3cnn(C(C)C)c3c2)[nH]c1=O (stereo not shown) [compound 122, (Z)-5-(2-(6-(4-fluoro-1-isopropyl-1H-indazol-6-yl)-2-oxo-1,2-dihydropyridin-3-yl)-3-methylbutylidene)oxazolidine-2,4-dione]	32	278
CC(C)C(/C=C1\OC(=O)NC1=O)c1ccc(-c2cc(F)c3cnn(C4CCCC4)c3c2)[nH]c1=O (stereo not shown) [compound 124, (Z)-5-(2-(6-(1-cyclopentyl-4-fluoro-1H-indazol-6-yl)-2-oxo-1,2-dihydropyridin-3-yl)-3-methylbutylidene)oxazolidine-2,4-dione]	202	19200
CCn1ncc2c(C)cc(-c3ccc(C(CC4OC(=O)NC4=O)C(C)C)c(=O)[nH]3)cc21 (stereo not shown) [compound 126, 5-(2-(6-(1-ethyl-4-methyl-1H-indazol-6-yl)-2-oxo-1,2-dihydropyridin-3-yl)-3-methylbutyl)oxazolidine-2,4-dione]	65	382
O=C1NC(=O)/C(=C/C(c2ccc(-c3ccc4cccc(F)c4c3)[nH]c2=O)C2CCCCC2)O1 (stereo not shown) [compound 134, (Z)-5-(2-cyclohexyl-2-(6-(8-fluoronaphthalen-2-yl)-2-oxo-1,2-dihydropyridin-3-yl)ethylidene)oxazolidine-2,4-dione]	4	8
CC(C)C(/C=C1\OC(=O)NC1=O)c1ccc(-c2ccc3cccc(C(F)(F)F)c3c2)[nH]c1=O (stereo not shown) [compound 143, 5-(3-methyl-2-(2-oxo-6-(8-(trifluoromethyl)naphthalen-2-yl)-1,2-dihydropyridin-3-yl)butylidene)oxazolidine-2,4-dione]	308	734
CC1(c2ccc(-c3ccc4ccccc4c3)[nH]c2=O)C(=O)Nc2nncn21 (stereo not shown) [compound 152, 3-[5-methyl-6-oxo-5H, 6H, 7H-imidazo[2,1-c][1,2,4]triazol-5-yl]-6-(naphthalen-2-yl)-1,2-dihydropyridin-2-one]	428	2140
CC1(c2ccc(-c3ccc4ccccc4c3)[nH]c2=O)C(=O)Nc2nccn21 (stereo not shown) [compound 153, 3-methyl-3-(6-(naphthalen-2-yl)-2-oxo-1,2-dihydropyridin-3-yl)-1H-imidazo[1,2-a]imidazol-2(3H)-one]	43	400
CC(C)C1(c2ccc(-c3ccc4cccc(F)c4c3)[nH]c2=O)C(=O)Nc2nccn21 (stereo not shown) [compound 155, 3-(6-(8-fluoronaphthalen-2-yl)-2-oxo-1,2-dihydropyridin-3-yl)-3-isopropyl-1H-imidazo[1,2-a]imidazol-2(3H)-one]	5	20
CC(C)C(c1ccc(-c2ccc3cccc(F)c3c2)[nH]c1=O)n1cnnc1N (stereo not shown) [compound 160, 3-(1-(3-amino-4H-1,2,4-triazol-4-yl)-2-methylpropyl)-6-(8-fluoronaphthalen-2-yl)pyridin-2(1H)-one]	13	44
CC(C)C(c1ccc(-c2ccc3cccc(F)c3c2)[nH]c1=O)n1cnc(N)n1 (stereo not shown) [compound 161, 3-(1-(3-amino-1H-1,2,4-triazol-1-yl)-2-methylpropyl)-6-(8-fluoronaphthalen-2-yl)pyridin-2(1H)-one]	27	95
CC1(c2ccc(-c3ccc4ccccc4c3)[nH]c2=O)Cn2cnnc2N1 (stereo not shown) [compound 167, 3-[6-methyl-5H,6H,7H-imidazo[2,1-c][1,2,4]triazol-6-yl]-6-(naphthalen-2-yl)-1,2-dihydropyridin-2-one]	151	779
CC(C)C(F)(C(=O)NS(=O)(=O)c1cc(F)cc(F)c1)c1ccc(-c2ccc3cccc(F)c3c2)[nH]c1=O (stereo not shown) [compound 173, N-((3,5-difluorophenyl)sulfonyl)-2-fluoro-2-(6-(8-fluoronaphthalen-2-yl)-2-oxo-1,2-dihydropyridin-3-yl)-3-methylbutanamide]	153	1300
CC(C)C(C(=O)NS(=O)(=O)c1cc(Cl)c(Cl)s1)c1ccc(-c2ccc3cccc(F)c3c2)[nH]c1=O (stereo not shown) [compound 175, N-(4,5-dichlorothiophen-2-ylsulfonyl)-2-(6-(8-fluoronaphthalen-2-yl)-2-oxo-1,2-dihydropyridin-3-yl)-3-methylbutanamide]	110	171
CC(C)C(C(=O)NC1CCNC1)c1ccc(-c2ccc3cccc(F)c3c2)[nH]c1=O (stereo not shown) [compound 178, 2-(6-(8-fluoronaphthalen-2-yl)-2-oxo-1,2-dihydropyridin-3-yl)-3-methyl-N-(pyrrolidin-3-yl)butanamide]	20	220
CC(C)C(C(=O)NC1CN(C)C1)c1ccc(-c2ccc3cccc(F)c3c2)[nH]c1=O (stereo not shown) [compound 182, 2-(6-(8-fluoronaphthalen-2-yl)-2-oxo-1,2-dihydropyridin-3-yl)-3-methyl-N-(1-methylazetidin-3-yl)butanamide]	41	638
